Measurements as given in article PMC8894198, “Biosynthetic Microcin J25 Exerts Strong Antibacterial, Anti-Inflammatory Activities, Low Cytotoxicity Without Increasing Drug-Resistance to Bacteria Target” (Frontiers in Immunology, 2022).
“Also recorded” adds a separate entry of the source. Where a SMILES comes first, the peptide text is derived from it. Bridges are numbered along the chain shown (N, C = ends).

How the values were obtained:
in vitro [1] = experiment: in vitro
Protocol: (§1) The simulated gastric fluid (SGF) and simulated intestinal fluid (SIF) were mainly based on the relevant contents of the Chinese Pharmacopoeia as described previously ([26]). SGF was configurated with 10 mg/mL pepsin, 0.03 M NaCl was used to blend the pH to 1.5, while SIF was configured with 10 mg/mL trypsin, 0.05 M KH2PO4 was used to blended pH as 7. SGF and SIF were then measured separately, and the antimicrobial activity of MccJ25 in serum was determined. E. coli K88 cells were grown in MHB (Difco Laboratories, Detroit, MI, USA). In short, 1 mL of the bacterial suspension and MccJ25 were transferred into 9 mL of medium. The control group was as follows: no MccJ25 was added to it. E. coli K88 cells with a live cell count maintained at approximately 10^5 cells per milliliter were inoculated on LB agar, which was then poured into plates equipped with Oxford cups, thus forming wells. Then, MccJ25 (1 × MIC) previously treated with SGF, SIF and serum for 2, 4, and 6 h was added to these wells. One of the agar substances covering the wells needs to be incubated overnight at 37°C, and finally, the size of its growth inhibition area, i.e., the diameter, needs to be determined.
(§2) Figure 3 Stability and activity of MccJ25 in different conditions and biological fluids. Various concentration of MccJ25 was incubated with different temperatures (A), pH values (B), (C) SIF, SGF, and serum. Proteases (D-F) for different indicated times. Afterwards, the amount of the remaining MccJ25 was determined by RP-HPLC. […] NE: negative control; Chy: chymotrypsin. […] Effects of temperature (G), RT: room temperature, pH values (H), proteases (I), SGF (J), SIF (K), and serum (L) on the inhibition of E coli K88 by MccJ25. The zone of inhibition is often used to clarify the antimicrobial activity of MccJ25. […] Chy refers to chymotrypsin. Data are presented as the mean of 6 biological replicates ± standard error of mean form.

[2] = remaining peptide by RP-HPLC, n = 6
Protocol: as §2

IPEC-J2 cells = conditions: previous study; ref [29]; cited from earlier work
From the text: Microcins, AMPs, are a large class of antimicrobial agents that can be employed in the treatment of various infectious diseases. […] Cytotoxicity, including the hemolysis of erythrocytes, is one of the main factors limiting the practical application of AMPs. Therefore, it is crucial to have a clear understanding of the c ...

[3] = RP-HPLC
Protocol: as §1
Figure 3 Stability and activity of MccJ25 in different conditions and biological fluids. […] Afterwards, the amount of the remaining MccJ25 was determined by RP-HPLC. […]

RAW264.7 cells [4] = conditions: 2 to 512 μg/mL MccJ25, 24 h, 37°C; n = 6
Protocol: (§3) Certain adjustments were made to Dulbecco’s modified Eagle’s medium (DMEM), i.e., 20% fetal bovine serum (FBS) was added, and human colon cancer cell line Caco-2 and murine cell line macrophage RAW264.7 cells were inoculated into the adjusted medium, with the inoculum density maintained at 2 × 10^4 cells/mL, placed in 96-well plates until the overall confluence ratio reached 80% to 90%, respectively.
(§4) The secretion of the cell membrane enzyme lactate dehydrogenase (LDH) was measured on the basis of a colorimetric assay. Caco-2 and RAW264.7 cells (2 × 10^4 cells/well) as controls without or with concentrations of 2 to 512 μg/mL MccJ25 were incubated for 24 h at 37°C in 5% CO2. A simple step was to transfer 100 μL of cell culture medium from each well to a new 96-well plate and measure the activity of LDH based on the LDH cytotoxicity assay kit (Clontech, Mountain View, CA, USA) according to the manufacturer’s instructions. The catalyst and dye solutions were mixed well and added to the wells containing cell culture medium and then incubated for 30 min at room temperature. The absorbance at 490 and 670 nm was measured with a microplate reader (Model SynergyMx, BioTek, Winooski, VT, USA). Absorbance values were corrected by subtracting the […].

Caco-2 cells [5] = conditions: 2 to 512 μg/mL MccJ25, 24 h, 37°C; n = 6
Protocol: as §3, §4

RAW264.7 cells [6] = experiment: MTT cytotoxicity assay; type: cell-based, murine; conditions: different concentrations of MccJ25 up to 512 μg/mL, 24 h, 37°C; vs control; n = 6
Protocol: (§5) To test whether MccJ25 could have an effect on the metabolic activity of the cells, the necessary MTT assay was performed (Roche Molecular Biochemistry, Mannheim, Germany) as previously described ([28], [29]). The whole operation process can be briefly summarized as follows: first, various concentration gradients of MccJ25 solution were added, the ambient temperature of the cell secondary incubation was maintained at 37°C, the CO2 concentration was maintained at 5%, and the incubation time needed to reach 24 h. The control group was the cells without any treatment. Afterwards, 20 μL of MTT solution (concentration 5 mg/mL, medium DPBS) was added to all wells and incubated for 3.5 h at a temperature of 37°C and a CO2 concentration of 5%. Components of the medium were removed by centrifugation, and the MTT metabolites were resuspended in 200 μL of dimethyl sulfoxide. The absorbance value at 560 nm was measured, and the background value was the absorbance at 670 nm, which needed to be subtracted from the background value to obtain the absorbance value.

chymotrypsin = experiment: in vitro; conditions: RP-HPLC
Protocol: (§6) The resistance of MccJ25 to pepsin, trypsin and chymotrypsin was evaluated based on previous studies ([26]), with minor modifications. E. coli K88 cells were prepared (approximately 1 × 10^7 CFU/mL), and 1 mL of the bacterial suspension and MccJ25 were transferred into 9 mL of medium. For the control, MccJ25 was not added. LB agar inoculated with E. coli K88 cells (~10^5 viable cells/mL) was poured onto a plate containing an Oxford cup to form individual wells. Then, 2 and 4 h MccJ25 (1 × MIC) previously subjected to different treatments were added to the wells. The agar overlay was incubated overnight at 37°C, and the diameter of the growth inhibition zone was measured.
as §2

in vitro [7] = experiment: in vitro; remark: listed apart in the source
Protocol: as §6, §2

Caco-2 cells [8] = experiment: MTT cytotoxicity assay; type: cell-based, human; conditions: different concentrations of MccJ25 up to 512 μg/mL, 24 h, 37°C; vs control; n = 6
Protocol: as §5

pig erythrocytes (pRBCs) = conditions: 512 μg/mL (highest concentration), 8% RBCs in PBS, 37°C, 1 h, A414
Protocol: (§7) Fresh mouse/pig erythrocytes (mRBCs/pRBCs) were collected from well-grown animals, centrifuged at 4,200 rpm and washed well with phosphate-buffered saline (PBS) to ensure that their supernatants were free of impurities and remained clear. The liquid was added to the 96-well plate after 2-fold dilution of MccJ25 prepared with PBS, and the final concentration of RBCs was introduced at 8%. The plate was stirred less vigorously to homogenize the liquid and incubated at 37°C for 1 h. The supernatant was then centrifuged at 4,500 rpm for 10 min, and its absorbance value at 414 nm was measured. Three replicate groups were set up for all the above experiments, and the percentage hemolysis was calculated as follows: percentage hemolysis = [(A414 in peptide solution - A414 in PBS)/(A414 in […] - A414 in PBS)]. ×100, where 100% hemolysis refers to the absorbance of RBCs exposed to 1% Triton X-100 in the environment and 0% hemolysis refers to the absorbance of RBCs exposed to PBS. The positive control used in this experiment was melittin.

[9] = system: mouse erythrocytes (mRBCs); conditions: 512 μg/mL (highest concentration), 8% RBCs in PBS, 37°C, 1 h, A414
Protocol: as §7

E. coli K88 [10] = type: cell-based; conditions: sublethal levels, daily sequential passages
Protocol: To quantify the production status of the bacteria, the bacterial density was measured after incubating for 24 h. Cultures with the second highest concentration allowed to grow (OD600 ≥ 2) were diluted 1:100 with MccJ25 MHB at different concentrations than those described above. Cultures that grew above the indicated MIC levels were plated on LB agar plates, and their MIC levels were determined by the broth macrodilution method.

E. coli K88 [11] = experiment: MIC variability (cross-resistance) after 5 days at sub-MIC; type: cell-based; conditions: after culture under ampicillin (0.25 × MIC) for 5 days
Protocol: A 1:100 dilution of the bacteria was performed daily in the above MHB. Aliquots of the culture medium were used daily for 5 days thereafter to determine the MICs of ampicillin, tetracycline, aureomycin, and kanamycin. This study was performed based on our previous study ([29]).

## CC[C@H](C)[C@H](NC(=O)CNC(=O)[C@@H](NC(=O)[C@H](Cc1ccccc1)NC(=O)[C@H](Cc1ccc(O)cc1)NC(=O)[C@@H]1CCC(=O)NCC(=O)NCC(=O)N[C@@H](C)C(=O)NCC(=O)N[C@@H](Cc2cnc[nH]2)C(=O)N[C@@H](C(C)C)C(=O)N2CCC[C@H]2C(=O)N1)C(C)C)C(=O)NCC(=O)N[C@H](C(=O)N1CCC[C@H]1C(=O)N[C@H](C(=O)N[C@@H](CO)C(=O)N[C@@H](Cc1ccccc1)C(=O)N[C@@H](Cc1ccc(O)cc1)C(=O)NCC(=O)O)[C@@H](C)CC)[C@@H](C)O [MccJ25, microcin J25] (GGAGHVPEYFVGIGTPISFYG-OH; lactam N-8)
In vitro [1]; 6 h, RP-HPLC
  intact MccJ25 after 6 h of incubation in serum: still present
In vitro [1]; SIF pH 7, 10 mg/mL trypsin, 6 h, RP-HPLC
  intact MccJ25 after 6 h of incubation in SIF: still present
In vitro [1]; mouse, serum
  half-life: 4 h
In vitro [1]; simulated intestinal fluid (SIF) with 10 mg/mL trypsin, pH 7
  half-life: 2 h
[2]; 121°C, 20 min
  stability of intact MccJ25 at high temperature: able to maintain its own steady state
[2]; pH 2.0 to 9.0, 2 h
  stability of intact MccJ25 at different pH: able to maintain its own steady state
IPEC-J2 cells
  cytotoxicity: not cytotoxic
[3]; SGF pH 1.5, 10 mg/mL pepsin, 6 h
  intact MccJ25 after 6 h of incubation in SGF: still present
[3]; SGF: 10 mg/mL pepsin, 0.03 M NaCl, pH 1.5, up to 6 h, n = 6
  concentration of intact MccJ25 in SGF: decreased slowly
RAW264.7 cells [4]
  LDH activity (plasma membrane integrity): did not stimulate LDH activity
Caco-2 cells [5]
  LDH activity (plasma membrane integrity): did not stimulate LDH activity
RAW264.7 cells [6]
  cell viability (MTT): nontoxic; also recorded: no significant differences in cell survival
chymotrypsin; 2 and 4 h
  level of intact MccJ25 exposed to chymotrypsin: below the detection limit
chymotrypsin; after 6 h
  intact MccJ25 after exposure to chymotrypsin: below the detection limit
In vitro [7]; chymotrypsin (isolated protease)
  metabolised at 1 h: 70%
In vitro [7]; pepsin (isolated protease)
  remaining at 6 h: > 70%
In vitro [7]; trypsin (isolated protease)
  remaining at 6 h: > 70%
Caco-2 cells [8]
  cell viability (MTT): nontoxic; also recorded: no significant differences in cell survival
Pig erythrocytes (pRBCs)
  hemolysis: 4.07%
[9]
  hemolysis: 4.16%

## CC1(C)S[C@@H]2[C@H](NC(=O)[C@H](N)c3ccccc3)C(=O)N2[C@H]1C(=O)O [ampicillin]
E. coli K88 [10]
  time of serial passage until resistance: ≤ 4 days
E. coli K88 [11]
  elevation of the MIC of the antibiotic: 2 fold

## O=C(O)c1cn(C2CC2)c2cc(N3CCNCC3)c(F)cc2c1=O [ciprofloxacin]
E. coli K88 [11]
  elevation of the MIC of the antibiotic: 2 fold

## NC[C@H]1O[C@H](O[C@H]2[C@H](O)[C@@H](O[C@H]3O[C@H](CO)[C@@H](O)[C@H](N)[C@H]3O)[C@H](N)C[C@@H]2N)[C@H](O)[C@@H](O)[C@@H]1O [kanamycin]
E. coli K88 [11]
  elevation of the MIC of the antibiotic: 2 fold

## CN(C)[C@@H]1C(O)=C(C(N)=O)C(=O)[C@@]2(O)C(O)=C3C(=O)c4c(O)cccc4[C@@](C)(O)[C@H]3C[C@@H]12 [tetracycline]
E. coli K88 [10]
  time of serial passage until resistance: ≤ 3 days
E. coli K88 [11]
  elevation of the MIC of the antibiotic: 2 fold
